Experiment [1] deals with PI3Kα (complex of human p110α and human p85α) (Homo sapiens (Human), UniProt P42336). The experiment in a line: PI3Kα kinase assay (HTRF-based PI3K inhibition assay).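 For all read-outs here: PIP3 product detected by HTRF, reading resonance energy transfer from Europium-labeled anti-GST antibody to Streptavidin-APC, as displacement of biotinylated PIP3 tracer from the GST-PH domain complex.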 It is filed as biochemical. Particulars: for inhibition at 0.93 µM: 0.93 μM compound, read-out: PI3K alpha average % Inhibition at 0.93 μM; for IC50: 10 μM ATP, 10 μM PIP2, 20 min at 22° C., read-out: average IC50 in the PI3K alpha biochemical assay.
Sequence of PI3Kα (complex of human p110α and human p85α) (P42336 whole entry, the tested form may be a part): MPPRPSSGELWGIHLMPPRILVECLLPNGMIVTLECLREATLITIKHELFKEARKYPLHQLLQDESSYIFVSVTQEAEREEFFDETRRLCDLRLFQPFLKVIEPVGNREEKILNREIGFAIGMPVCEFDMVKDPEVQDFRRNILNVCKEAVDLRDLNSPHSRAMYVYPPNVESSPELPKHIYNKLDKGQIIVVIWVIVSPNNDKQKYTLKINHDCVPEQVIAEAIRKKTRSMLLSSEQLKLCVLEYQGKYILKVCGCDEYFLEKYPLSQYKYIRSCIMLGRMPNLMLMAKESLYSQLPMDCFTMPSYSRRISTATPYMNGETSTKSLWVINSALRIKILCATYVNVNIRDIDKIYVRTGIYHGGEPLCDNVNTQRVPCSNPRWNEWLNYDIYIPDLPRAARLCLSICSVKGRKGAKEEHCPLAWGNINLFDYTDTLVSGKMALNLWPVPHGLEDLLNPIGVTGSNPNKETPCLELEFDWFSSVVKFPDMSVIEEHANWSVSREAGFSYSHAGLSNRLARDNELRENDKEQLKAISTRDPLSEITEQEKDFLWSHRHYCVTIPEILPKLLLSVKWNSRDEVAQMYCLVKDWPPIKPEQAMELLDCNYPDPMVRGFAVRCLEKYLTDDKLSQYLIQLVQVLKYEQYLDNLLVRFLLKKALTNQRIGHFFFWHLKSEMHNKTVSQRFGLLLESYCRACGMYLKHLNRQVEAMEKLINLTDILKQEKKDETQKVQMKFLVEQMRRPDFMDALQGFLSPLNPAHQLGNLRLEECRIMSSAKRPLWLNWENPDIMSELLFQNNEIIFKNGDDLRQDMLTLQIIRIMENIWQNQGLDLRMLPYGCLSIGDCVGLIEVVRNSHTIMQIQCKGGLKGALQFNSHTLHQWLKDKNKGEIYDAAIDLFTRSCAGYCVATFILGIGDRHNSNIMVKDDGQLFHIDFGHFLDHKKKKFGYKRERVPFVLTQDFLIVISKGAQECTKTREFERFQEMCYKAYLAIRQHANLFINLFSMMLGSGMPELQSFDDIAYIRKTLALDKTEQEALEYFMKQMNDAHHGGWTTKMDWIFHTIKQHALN
Sequence of PI3Kα (complex of human p110α and human p85α) (P27986 whole entry partner, the tested form may be a part): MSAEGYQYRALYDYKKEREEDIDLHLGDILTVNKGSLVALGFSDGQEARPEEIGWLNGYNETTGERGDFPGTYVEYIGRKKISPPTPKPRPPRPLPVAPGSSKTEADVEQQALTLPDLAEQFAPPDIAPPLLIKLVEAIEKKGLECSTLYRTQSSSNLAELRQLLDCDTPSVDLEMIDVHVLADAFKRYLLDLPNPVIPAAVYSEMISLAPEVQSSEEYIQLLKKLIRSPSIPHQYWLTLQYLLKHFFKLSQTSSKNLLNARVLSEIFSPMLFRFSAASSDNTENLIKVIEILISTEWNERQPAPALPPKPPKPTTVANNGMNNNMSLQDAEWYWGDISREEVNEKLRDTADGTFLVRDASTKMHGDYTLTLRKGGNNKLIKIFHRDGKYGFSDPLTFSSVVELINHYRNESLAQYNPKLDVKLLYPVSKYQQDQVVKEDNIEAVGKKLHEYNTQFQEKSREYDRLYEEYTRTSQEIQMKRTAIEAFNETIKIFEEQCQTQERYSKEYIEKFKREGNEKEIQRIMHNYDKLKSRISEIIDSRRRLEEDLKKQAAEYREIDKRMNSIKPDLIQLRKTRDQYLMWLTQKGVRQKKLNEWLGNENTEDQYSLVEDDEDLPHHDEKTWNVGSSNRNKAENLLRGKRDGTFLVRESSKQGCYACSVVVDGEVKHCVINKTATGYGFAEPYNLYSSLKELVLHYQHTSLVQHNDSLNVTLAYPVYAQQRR
Description: Determination of % Inhibition and IC50 Values of Compounds in PI3Kα Kinase Assay
PI3Kα inhibitory activity of compounds of the present invention was quantified employing the HTRF-based PI3K inhibition assay as described below.
As reagents for the kinase reaction itself and the quantification of the reaction product, the PI3-Kinase HTRF Assay kit from Millipore (#33-017) was used. With this kit the phosphatidylinositol 3,4,5-trisphosphate (PIP3) generated in the kinase reaction is detected by displacement of a biotinylated ligand from an energy transfer complex consisting of a Europium-labeled anti-GST monoclonal antibody, a GST-tagged PH domain, biotinylated PIP3 and Streptavidin-Allophycocyanin (APC).
For the assay 50 nL of a 80-fold concentrated solution of the test compound in DMSO was pipetted into a black low volume 384-well microtiter plate (Greiner Bio-One, Frickenhausen, Germany), 3 μL of a solution of PI3Kα and phosphatidylinositol-4,5-bisphosphate (PIP2, 13.8 μM=> final conc. in 4 μl reaction volume=10 μM) in 1× reaction buffer (exact composition not disclosed by the vendor) were added and the mixture was incubated for 15 min at 22° C. to allow pre-binding of the test compounds to the enzyme before the start of the kinase reaction. The amount of PI3Kα was chosen to have the enzyme reaction in the linear range and depended on the activity of the individual lot, typical concentrations in assay were in the range of 90 ng/mL. Then the kinase reaction was started by the addition of 1 μL of a solution of adenosine triphosphate (ATP, 40 μM=> final conc. in the 4 μL assay volume is 10 μM) in reaction buffer and the resulting mixture was incubated for a reaction time of 20 min at 22° C.
The reaction was stopped by the addition of 1 μL of an stop solution (containing the biotinylated PIP3 used as a tracer), then 1 μL detection mix (containing a Europium-labeled anti-GST monoclonal antibody, a GST-tagged PH domain, and Streptavidin-Allophycocyanin) was added and resulting mixture was incubated 3 h at 22° C. to allow the formation of complexes between the detection reagents and either the PIP3 generated in the kinase reaction, or the biotinylated PIP3 added with the stop solution. Subsequently, the amount of energy transfer complex consisting of a Europium-labeled anti-GST monoclonal antibody, a GST-tagged PH domain, biotinylated PIP3 and Streptavidin-Allophycocyanin (APC) was evaluated by measurement of the resonance energy transfer from the Europium-labeled anti-GST monoclonal antibody to the Streptavidin-Allophycocyanin. Therefore, the fluorescence emissions at 620 nm and 665 nm after excitation at 350 nm were measured using a TR-FRET reader, e.g., a Pherastar (BMG Labtechnologies, Offenburg, Germany) or a Viewlux (Perkin-Elmer). The ratio of the emissions at 665 nm and at 622 nm was taken as the measure for the amount of biotinylated PIP3 bound to the GST-tagged PH domain, which is negatively correlated with the amount of PIP3 generated.

The target in experiment [2] is PI3Kβ (complex of human p110β and human p85α) (Homo sapiens (Human), UniProt P42338). Description: PI3Kβ kinase assay (HTRF-based PI3K inhibition assay).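 For all read-outs here: Kinase-made PIP3 detected by HTRF, displacing biotinylated PIP3 tracer from a complex of Europium anti-GST antibody, GST-fused PH domain and Streptavidin-APC, read as Europium-to-APC energy transfer.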 Type of experiment: biochemical. The conditions noted are these: for inhibition at 0.93 µM: 0.93 μM compound, read-out: PI3K beta average % Inhibition at 0.93 μM; for IC50: 10 μM ATP, 10 μM PIP2, 20 min at 22° C., read-out: average IC50 in the PI3K beta biochemical assay; for PI3K beta average IC50/PI3K alpha average IC50: ratio of beta IC50 to alpha IC50.
Sequence of PI3Kβ (complex of human p110β and human p85α) (P42338 whole entry, the tested form may be a part): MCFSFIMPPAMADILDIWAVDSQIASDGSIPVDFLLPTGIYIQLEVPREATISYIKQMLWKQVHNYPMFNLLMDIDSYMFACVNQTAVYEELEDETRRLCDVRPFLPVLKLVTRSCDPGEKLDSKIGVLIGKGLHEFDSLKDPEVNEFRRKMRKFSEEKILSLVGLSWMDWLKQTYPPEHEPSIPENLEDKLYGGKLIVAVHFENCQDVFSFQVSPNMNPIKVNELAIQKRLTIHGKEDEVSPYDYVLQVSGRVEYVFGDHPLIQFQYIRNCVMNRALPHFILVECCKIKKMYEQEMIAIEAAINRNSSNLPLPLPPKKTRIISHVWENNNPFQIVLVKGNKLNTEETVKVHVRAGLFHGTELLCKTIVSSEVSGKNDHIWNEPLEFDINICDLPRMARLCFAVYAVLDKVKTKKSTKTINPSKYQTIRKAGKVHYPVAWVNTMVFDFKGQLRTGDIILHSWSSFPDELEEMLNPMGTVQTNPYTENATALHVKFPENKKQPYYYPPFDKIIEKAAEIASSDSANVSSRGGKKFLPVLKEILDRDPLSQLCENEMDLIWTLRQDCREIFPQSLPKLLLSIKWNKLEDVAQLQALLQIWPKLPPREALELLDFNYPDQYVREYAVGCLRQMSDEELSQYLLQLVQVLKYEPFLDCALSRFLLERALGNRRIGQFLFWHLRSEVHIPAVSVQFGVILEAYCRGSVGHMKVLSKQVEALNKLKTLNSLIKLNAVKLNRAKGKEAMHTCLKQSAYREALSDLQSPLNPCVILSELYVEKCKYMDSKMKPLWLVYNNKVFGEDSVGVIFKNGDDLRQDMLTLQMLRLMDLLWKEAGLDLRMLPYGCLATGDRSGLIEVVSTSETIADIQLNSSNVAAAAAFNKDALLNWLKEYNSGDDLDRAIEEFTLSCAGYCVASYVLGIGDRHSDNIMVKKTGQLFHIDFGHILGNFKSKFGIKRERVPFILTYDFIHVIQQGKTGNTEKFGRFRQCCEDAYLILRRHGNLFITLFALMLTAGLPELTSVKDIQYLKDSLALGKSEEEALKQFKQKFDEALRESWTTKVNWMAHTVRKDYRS
Sequence of PI3Kβ (complex of human p110β and human p85α) (P27986 whole entry partner, the tested form may be a part): as the sequence (P27986 whole entry partner, the tested form may be a part) above

The results in this text go back to patent publication US8895549B2, “Aminoalcohol substituted 2,3-dihydroimidazo[1,2-c]quinazoline derivatives useful for treating hyper-proliferative disorders and diseases associated with angiogenesis” (Bayer Intellectual Property GmbH, priority 2010, dated 2014).

Molecules are shown by their SMILES. A value given as a limit tells only on which side of the number the result lay.

`COc1c(OC[C@H](O)CN2C[C@@H](C)O[C@@H](C)C2)ccc2c1N=C(NC(=O)c1cccnc1C)N1CCN=C21` [Example 17, N-[8-({(2R)-3-[(2R,6S)-2,6-dimethylmorpholin-4-yl]-2-hydroxypropyl}oxy)-7-methoxy-2,3-dihydroimidazo[1,2-c]quinazolin-5-yl]-2-methylpyridine-3-carboxamide]: in experiment [1], the inhibition at 0.93 µM turned out to be 109% and the IC50 was under 10 nM. Moreover, in experiment [2], the inhibition at 0.93 µM came out at 87.2%, the IC50 was in the range of 10 to 50 nM and the “PI3K beta average IC50/PI3K alpha average IC50” value stood at 5.36.
For the compound `COc1c(OC[C@H](O)CN2CCCC2)ccc2c1N=C(NC(=O)c1cccnc1C)N1CCN=C21` [Example 18, N-(8-{[(2R)-2-hydroxy-3-(pyrrolidin-1-yl)propyl]oxy}-7-methoxy-2,3-dihydroimidazo[1,2-c]quinazolin-5-yl)-2-methylpyridine-3-carboxamide], in experiment [1], the inhibition at 0.93 µM came out at 96.9% and the IC50 was under 10 nM. Besides, in experiment [2], the inhibition at 0.93 µM amounted to 103%, the IC50 lay in the range of 10 to 50 nM and the “PI3K beta average IC50/PI3K alpha average IC50” value was determined as 3.90.
The like results for `COc1c(OC[C@H](O)CN2CCCCC2)ccc2c1N=C(NC(=O)c1cccnc1C)N1CCN=C21` [Example 19, N-(8-{[(2R)-2-Hydroxy-3-(piperidin-1-yl)propyl]oxy}-7-methoxy-2,3-dihydroimidazo[1,2-c]quinazolin-5-yl)-2-methylpyridine-3-carboxamide] were, in that order, 103%, under 10 nM, 91.2%, 10 to 50 nM and 2.78.
The like results for `COc1c(OC[C@H](O)CN(C(C)C)C(C)C)ccc2c1N=C(NC(=O)c1cccnc1C)N1CCN=C21` [Example 20, N-(8-{[(2R)-3-(dipropan-2-ylamino)-2-hydroxypropyl]oxy}-7-methoxy-2,3-dihydroimidazo[1,2-c]quinazolin-5-yl)-2-methylpyridine-3-carboxamide] were, in that order, 102%, under 10 nM, 98.6%, 10 to 50 nM and 4.20.
For `COc1c(OCC(O)CN2CCOCC2)ccc2c1N=C(NC(=O)c1ccc(N)nc1)N1CCN=C21` (stereo not drawn) [Example 21, 6-amino-N-{8-[2-hydroxy-3-(morpholin-4-yl)propoxy]-7-methoxy-2,3-dihydroimidazo[1,2-c]quinazolin-5-yl}pyridine-3-carboxamide], in experiment [1], the IC50 is under 10 nM. Further, in experiment [2], the IC50 was 10 to 50 nM and the “PI3K beta average IC50/PI3K alpha average IC50” value is 9.37.
`COc1c(OC[C@H](O)CN2CCOCC2)ccc2c1N=C(NC(=O)c1ccc(N)nc1C)N1CCN=C21` [Example 23, 6-Amino-N-(8-{[(2R)-2-hydroxy-3-(morpholin-4-yl)propyl]oxy}-7-methoxy-2,3-dihydroimidazo[1,2-c]quinazolin-5-yl)-2-methylpyridine-3-carboxamide]: in experiment [1], the inhibition at 0.93 µM worked out at 105% and the IC50 is under 10 nM. Besides, in experiment [2], the inhibition at 0.93 µM came out at 119%, the IC50 fell in the range of 10 to 50 nM and the “PI3K beta average IC50/PI3K alpha average IC50” value is on record as 7.30.
Consider `COc1c(OC[C@H](O)CN2CCCC2)ccc2c1N=C(NC(=O)c1cncnc1)N1CCN=C21` [Example 24, N-(8-{[(2R)-2-hydroxy-3-(pyrrolidin-1-yl)propyl]oxy}-7-methoxy-2,3-dihydroimidazo[1,2-c]quinazolin-5-yl)pyrimidine-5-carboxamide], for which, in experiment [1], the inhibition at 0.93 µM was determined as 85.1% and the IC50 was 10 to 50 nM. In experiment [2], the inhibition at 0.93 µM stood at 94.7%, the half-maximal inhibitory concentration (IC50) was 10 to 50 nM and the “PI3K beta average IC50/PI3K alpha average IC50” value is reported as 1.99.

A word on the inhibition: it is the drop in the measured response relative to a control, in per cent. The IC50 is the point on the concentration scale where inhibition reaches its midpoint.
